Assay results published in patent US12077503B2, “Substituted cyclic amides and their use as herbicides” (FMC CORPORATION, priority 2015, dated 2024).

What was measured:
Type in all cases: in vivo
[1] = test system: pigweed (Amaranthus retroflexus); test: Test A postemergence; conditions: Amaranthus retroflexus, post-emergence, 240 h, postemergence, read-out: Pigweed plant response rating; for pest or weed control at 125 g/ha: 125 g ai/ha, visual injury on 0 to 100 scale (0 no effect, 100 complete control), approx. 10 d; for pest or weed control at 500 g/ha: 500 g ai/ha, 0 to 100 scale, 0 is no effect, 100 is complete control
Procedure, shortened: (§1)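 Seeded soil received test chemicals as a preemergence directed spray, and seedlings at one to two leaves, 2–10 cm tall, received them postemergence, in a non-phytotoxic, surfactant-containing solvent mixture. Pots were held in a greenhouse for approximately 10 d, then rated for injury from 0, no effect, to 100, complete control.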

[2] = test system: giant foxtail (Setaria faberii); test: Test A postemergence; conditions: Setaria faberi, post-emergence, 240 h, postemergence, read-out: Foxtail, Giant plant response rating; for pest or weed control at 125 g/ha: 125 g ai/ha, visual injury on 0 to 100 scale (0 no effect, 100 complete control), approx. 10 d; for pest or weed control at 500 g/ha: 500 g ai/ha, 0 to 100 scale, 0 is no effect, 100 is complete control
Procedure, shortened: as §1

[3] = test system: wheat (Triticum aestivum); test: Test A postemergence; conditions: Triticum aestivum, post-emergence, 240 h, postemergence, read-out: Wheat plant response rating; for plant injury at 125 g/ha: 125 g ai/ha, visual injury on 0 to 100 scale (0 no effect, 100 complete control), approx. 10 d; for plant injury at 500 g/ha: 500 g ai/ha, 0 to 100 scale, 0 is no effect, 100 is complete control
Procedure, shortened: as §1

[4] = test system: Galium (catchweed bedstraw, Galium aparine); test: Test A postemergence; conditions: Galium, post-emergence, 240 h, postemergence, read-out: Galium plant response rating; for pest or weed control at 125 g/ha: 125 g ai/ha, visual injury on 0 to 100 scale (0 no effect, 100 complete control), approx. 10 d; for pest or weed control at 500 g/ha: 500 g ai/ha, 0 to 100 scale, 0 is no effect, 100 is complete control
Procedure, shortened: as §1

[5] = test system: ryegrass, Italian (Italian ryegrass, Lolium multiflorum); test: Test A postemergence; conditions: Lolium multiflorum, post-emergence, 240 h, postemergence, read-out: Ryegrass, Italian plant response rating; for pest or weed control at 125 g/ha: 125 g ai/ha, visual injury on 0 to 100 scale (0 no effect, 100 complete control), approx. 10 d; for pest or weed control at 500 g/ha: 500 g ai/ha, 0 to 100 scale, 0 is no effect, 100 is complete control
Procedure, shortened: as §1

[6] = test system: ragweed (common ragweed, Ambrosia elatior); test: Test A postemergence; conditions: Ambrosia artemisiifolia, post-emergence, 240 h, postemergence, read-out: Ragweed plant response rating; for pest or weed control at 125 g/ha: 125 g ai/ha, visual injury on 0 to 100 scale (0 no effect, 100 complete control), approx. 10 d; for pest or weed control at 500 g/ha: 500 g ai/ha, 0 to 100 scale, 0 is no effect, 100 is complete control
Procedure, shortened: as §1

[7] = test system: corn (Zea mays); test: Test A postemergence; conditions: Zea mays, post-emergence, 240 h, postemergence, read-out: Corn plant response rating; for plant injury at 125 g/ha: 125 g ai/ha, visual injury on 0 to 100 scale (0 no effect, 100 complete control), approx. 10 d; for plant injury at 500 g/ha: 500 g ai/ha, 0 to 100 scale, 0 is no effect, 100 is complete control
Procedure, shortened: as §1

[8] = test system: blackgrass (Alopecurus myosuroides); test: Test A postemergence; conditions: Alopecurus myosuroides, post-emergence, 240 h, postemergence, read-out: Blackgrass plant response rating; for pest or weed control at 125 g/ha: 125 g ai/ha, visual injury on 0 to 100 scale (0 no effect, 100 complete control), approx. 10 d; for pest or weed control at 500 g/ha: 500 g ai/ha, 0 to 100 scale, 0 is no effect, 100 is complete control
Procedure, shortened: as §1

[9] = test system: Kochia (Kochia scoparia); test: Test A postemergence; conditions: Bassia scoparia, post-emergence, 240 h, postemergence, read-out: Kochia plant response rating; for pest or weed control at 125 g/ha: 125 g ai/ha, visual injury on 0 to 100 scale (0 no effect, 100 complete control), approx. 10 d; for pest or weed control at 500 g/ha: 500 g ai/ha, 0 to 100 scale, 0 is no effect, 100 is complete control
Procedure, shortened: as §1

[10] = test system: barnyardgrass (Echinochloa crus-galli); test: Test A postemergence; conditions: Echinochloa crus-galli, post-emergence, 240 h, postemergence, read-out: Barnyardgrass plant response rating; for pest or weed control at 125 g/ha: 125 g ai/ha, visual injury on 0 to 100 scale (0 no effect, 100 complete control), approx. 10 d; for pest or weed control at 500 g/ha: 500 g ai/ha, 0 to 100 scale, 0 is no effect, 100 is complete control
Procedure, shortened: as §1

[11] = test system: sedge, umbrella (small-flower umbrella sedge, Cyperus difformis); test: Test B flooded paddy test; conditions: Cyperus difformis, 250 g ai/ha, Flood; 0 to 100 scale where 0 is no effect and 100 is complete control; read-out: Sedge, Umbrella plant response rating
Procedure, shortened: (§2)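 Flooding to 3 cm over soil accompanied treatment, which consisted of adding compound to the standing water around 2-leaf plants; depth was then maintained. Visual assessment versus controls followed at 13 to 15 d (scale 0–100, 0 meaning no effect).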

[12] = test system: ducksalad (Heteranthera limosa); test: Test B flooded paddy test; conditions: Heteranthera limosa, 250 g ai/ha, Flood; 0 to 100 scale where 0 is no effect and 100 is complete control; read-out: Ducksalad plant response rating
Procedure, shortened: as §2

[13] = test system: rice (Oryra sativa); test: Test B flooded paddy test; conditions: Oryza sativa, 250 g ai/ha, Flood; 0 to 100 scale where 0 is no effect and 100 is complete control; read-out: Rice plant response rating
Procedure, shortened: as §2

[14] = test system: barnyardgrass (Echinochloa crus-galli); test: Test B flooded paddy test; conditions: Echinochloa crus-galli, 250 g ai/ha, Flood; 0 to 100 scale where 0 is no effect and 100 is complete control; read-out: Barnyardgrass plant response rating
Procedure, shortened: as §2

[15] = test system: ryegrass, Italian (Italian ryegrass, Lolium multiflorum); test: Test A preemergence; conditions: Lolium multiflorum, pre-emergence, 240 h, preemergence, read-out: Ryegrass, Italian plant response rating; for pest or weed control at 125 g/ha: 125 g ai/ha, 0 to 100 scale where 0 is no effect and 100 is complete control, approx. 10 d; for pest or weed control at 500 g/ha: 500 g ai/ha, visual injury rating about 10 d after treatment, 0 to 100 scale (0 no effect, 100 complete control)
Procedure, shortened: as §1

Structure (SMILES) | pest or weed control at 125 g/ha [1] | pest or weed control at 500 g/ha [1] | pest or weed control at 125 g/ha [2] | pest or weed control at 500 g/ha [2] | plant injury at 125 g/ha [3] | plant injury at 500 g/ha [3] | pest or weed control at 125 g/ha [4] | pest or weed control at 500 g/ha [4] | pest or weed control at 125 g/ha [5] | pest or weed control at 500 g/ha [5] | pest or weed control at 125 g/ha [6] | pest or weed control at 500 g/ha [6] | plant injury at 125 g/ha [7] | plant injury at 500 g/ha [7] | pest or weed control at 125 g/ha [8] | pest or weed control at 500 g/ha [8] | pest or weed control at 125 g/ha [9] | pest or weed control at 500 g/ha [9] | pest or weed control at 125 g/ha [10] | pest or weed control at 500 g/ha [10] | further results
CN1C[C@H](c2cc(F)cc(F)c2)[C@@H](C(=O)Nc2ccncc2F)C1=O [Compound 1095] | 0% | 0% | 0% | 0% | 0% | 0% | 0% | 0% | 0% | 0% | 0% | 0% | 0% | 0% | 0% | 0% | 0% | 0% | 0% | 0% | pest or weed control at 250 g/ha [11]: 0%; pest or weed control at 250 g/ha [12]: 50%; pest or weed control at 250 g/ha [13]: 0%; pest or weed control at 250 g/ha [14]: 0%; pest or weed control at 125 g/ha [15]: 0%; pest or weed control at 500 g/ha [15]: 0%
CN1C[C@H](c2cc(F)cc(F)c2)[C@@H](C(=O)Nc2cnccc2Cl)C1=O [Compound 1096] | 0% | 0% | 0% | 0% | 0% | 0% | 0% | 0% | 0% | 0% | 0% | 0% | 0% | 0% | 0% | 0% | 0% | 0% | 0% | 0% | pest or weed control at 250 g/ha [11]: 0%; pest or weed control at 250 g/ha [12]: 65%; pest or weed control at 250 g/ha [13]: 0%; pest or weed control at 250 g/ha [14]: 0%; pest or weed control at 125 g/ha [15]: 0%; pest or weed control at 500 g/ha [15]: 0%
Cc1cc([C@H]2CN(C)C(=O)[C@@H]2C(=O)Nc2ccc(F)cc2F)ccc1Br [Compound 1100] | 0% | 0% | 70% | 70% | 0% | 20% | 0% | 20% | 20% | 20% | 0% | 0% | 0% | 20% | 0% | 20% | 0% | 20% | 60% | 70% | pest or weed control at 250 g/ha [11]: 0%; pest or weed control at 250 g/ha [12]: 75%; pest or weed control at 250 g/ha [13]: 0%; pest or weed control at 250 g/ha [14]: 0%; pest or weed control at 125 g/ha [15]: 0%; pest or weed control at 500 g/ha [15]: 30%
